# Measured values from article PMC10454678, “Synthesis of hydroxy benzoin/benzil analogs and investigation of their antioxidant, antimicrobial, enzyme inhibition, and cytotoxic activities” (Turkish Journal of Chemistry, 2021).
# Experiments:
# [1] = DPPH radical scavenging activity; details: 0.1 mM DPPH, 50 min dark, 517 nm
# [2] = tested on: Streptococcus mutans RSKK07038; assay: MIC, microdilution, S. mutans; format: cell-based; details: Gram (+); BHI broth, 72 h, 36 °C
# [3] = tested on: Enterococcus faecalis ATCC29212; assay: MIC, microdilution, E. faecalis; format: cell-based; details: Gram (+); Mueller-Hinton broth, 18-24 h, 36 °C
# [4] = tested on: Staphylococcus aureus ATCC25923; assay: MIC, microdilution, S. aureus; format: cell-based; details: Gram (+); Mueller-Hinton broth, 18-24 h, 36 °C
# tyrosinase = tyrosinase (Agaricus bisporus, UniProt C7FF04); assay: Tyrosinase inhibition (dopachrome method); format: biochemical; details: L-DOPA substrate, pH 6.8, 25 °C, 492 nm
# Sequence of tyrosinase (C7FF04 1-392): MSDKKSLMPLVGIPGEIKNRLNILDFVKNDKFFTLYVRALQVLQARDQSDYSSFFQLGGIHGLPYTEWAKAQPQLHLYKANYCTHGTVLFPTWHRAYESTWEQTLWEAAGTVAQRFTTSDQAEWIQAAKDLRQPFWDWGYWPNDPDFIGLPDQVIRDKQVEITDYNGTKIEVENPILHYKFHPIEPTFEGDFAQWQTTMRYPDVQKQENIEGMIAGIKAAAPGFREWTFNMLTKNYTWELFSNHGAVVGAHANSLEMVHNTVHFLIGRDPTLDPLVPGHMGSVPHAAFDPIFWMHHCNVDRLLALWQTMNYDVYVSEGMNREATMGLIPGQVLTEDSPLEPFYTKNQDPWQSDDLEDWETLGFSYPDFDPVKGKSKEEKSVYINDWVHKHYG
# butyrylcholinesterase = butyrylcholinesterase (Homo sapiens, UniProt P06276); assay: biochemical; details: Tris-HCl pH 8.0, 25 °C, 405 nm
# Sequence of butyrylcholinesterase (P06276 29-602): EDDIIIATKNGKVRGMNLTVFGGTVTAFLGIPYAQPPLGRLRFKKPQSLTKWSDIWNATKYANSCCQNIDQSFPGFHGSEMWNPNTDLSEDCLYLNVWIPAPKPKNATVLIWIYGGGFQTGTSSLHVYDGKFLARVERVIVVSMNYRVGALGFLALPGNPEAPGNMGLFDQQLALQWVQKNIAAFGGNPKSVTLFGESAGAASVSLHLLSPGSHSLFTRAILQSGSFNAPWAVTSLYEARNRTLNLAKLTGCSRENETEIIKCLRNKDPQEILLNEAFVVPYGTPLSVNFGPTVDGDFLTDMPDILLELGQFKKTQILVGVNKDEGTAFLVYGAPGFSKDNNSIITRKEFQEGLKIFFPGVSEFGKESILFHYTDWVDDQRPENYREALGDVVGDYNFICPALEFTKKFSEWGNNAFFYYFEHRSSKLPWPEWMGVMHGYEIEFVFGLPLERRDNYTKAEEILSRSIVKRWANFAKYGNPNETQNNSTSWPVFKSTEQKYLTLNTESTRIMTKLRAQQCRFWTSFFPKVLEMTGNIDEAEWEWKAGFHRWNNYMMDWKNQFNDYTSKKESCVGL
# [5] = Ferric reducing antioxidant power (FRAP) assay; details: Trolox equivalents, compounds 2 mg/mL, 30 °C 30 min, 595 nm
# [6] = tested on: Escherichia coli ATCC 25922; assay: MIC, microdilution, E. coli; format: cell-based; details: Gram (-); Mueller-Hinton broth, 18-24 h, 36 °C
# [7] = tested on: Yersinia pseudotuberculosis ATCC911; assay: microbe, parasite or virus in culture; format: cell-based; details: Gram (-); Mueller-Hinton broth, 18-24 h, 36 °C
# [8] = Copper ions reducing activity (CUPRAC); details: Trolox equivalents; 30 min dark, room temperature, 450 nm
# Bacillus cereus Roma709 = assay: MIC, microdilution, B. cereus; format: cell-based; details: Gram (+); Mueller-Hinton broth, 18-24 h, 36 °C
# [9] = tested on: Candida albicans ATCC60193; assay: MIC, microdilution, C. albicans; format: cell-based; details: fungus; YEPD broth, 48 h, 36 °C
# [10] = tested on: Pseudomonas aeruginosa ATCC27853; assay: MIC, microdilution, P. aeruginosa; format: cell-based; details: Gram (-); Mueller-Hinton broth, 18-24 h, 36 °C
# acetylcholinesterase = acetylcholinesterase (Homo sapiens, UniProt P22303); assay: biochemical; details: Tris-HCl pH 8.0, 25 °C, 405 nm
# Sequence of acetylcholinesterase (P22303 32-614, species assumed): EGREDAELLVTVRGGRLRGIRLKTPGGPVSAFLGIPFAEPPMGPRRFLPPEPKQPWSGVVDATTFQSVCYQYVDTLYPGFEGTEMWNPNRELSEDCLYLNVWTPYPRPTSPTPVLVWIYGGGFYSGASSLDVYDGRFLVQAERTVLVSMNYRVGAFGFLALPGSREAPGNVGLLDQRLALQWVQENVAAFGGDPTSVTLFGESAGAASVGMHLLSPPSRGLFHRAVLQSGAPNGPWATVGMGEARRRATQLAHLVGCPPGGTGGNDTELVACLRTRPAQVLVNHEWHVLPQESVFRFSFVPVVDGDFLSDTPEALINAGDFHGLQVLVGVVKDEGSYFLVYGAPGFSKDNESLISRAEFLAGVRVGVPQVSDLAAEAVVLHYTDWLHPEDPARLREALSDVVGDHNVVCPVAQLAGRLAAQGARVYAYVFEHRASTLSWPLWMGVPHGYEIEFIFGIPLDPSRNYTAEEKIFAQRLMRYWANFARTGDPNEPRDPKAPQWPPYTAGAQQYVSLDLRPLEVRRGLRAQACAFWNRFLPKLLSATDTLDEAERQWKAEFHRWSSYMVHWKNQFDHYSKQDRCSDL
# α-amylase = α-amylase (Sus scrofa, UniProt P00690); assay: α-Amylase inhibition (Caraway-Somogyi I2/KI method); format: biochemical; details: starch, pH 6.9, 37 °C, 630 nm
# Sequence of α-amylase (P00690 16-511): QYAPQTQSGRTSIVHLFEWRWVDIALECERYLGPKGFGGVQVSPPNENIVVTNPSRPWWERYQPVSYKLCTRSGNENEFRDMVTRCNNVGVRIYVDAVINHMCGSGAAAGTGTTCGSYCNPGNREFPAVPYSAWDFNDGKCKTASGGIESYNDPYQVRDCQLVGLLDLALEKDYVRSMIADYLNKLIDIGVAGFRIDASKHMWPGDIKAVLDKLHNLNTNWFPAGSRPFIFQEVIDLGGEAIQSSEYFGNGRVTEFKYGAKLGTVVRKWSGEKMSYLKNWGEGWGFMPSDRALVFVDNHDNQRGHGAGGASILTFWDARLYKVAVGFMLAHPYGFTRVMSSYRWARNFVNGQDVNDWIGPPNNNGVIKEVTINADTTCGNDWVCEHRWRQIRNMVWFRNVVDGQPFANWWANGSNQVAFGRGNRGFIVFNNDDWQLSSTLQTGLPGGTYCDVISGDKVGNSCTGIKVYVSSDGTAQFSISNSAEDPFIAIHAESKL
# [11] = tested on: Mycobacterium smegmatis ATCC607; assay: MIC, microdilution, M. smegmatis; format: cell-based; details: Tub.; BHI broth, 72 h, 36 °C
# α-glucosidase = assay: α-Glucosidase inhibition; format: biochemical; details: PNPG, pH 6.8, 37 °C, 400 nm
# Protocol: It was incubated at 37 °C for 15 min. Similarly, an enzyme-free blank was prepared. The reaction was stopped when sodium carbonate (50 μL, 0.2 M) was added.
# [12] = tested on: human retinal normal cell line (RPE); assay: MTT cell proliferation, RPE; details: MTT, 24 h incubation
# [13] = tested on: human cervical cancer cell line (HeLa); assay: MTT cell proliferation, HeLa; details: MTT, 24 h incubation
substance,measurement,setting,value
"2-Hydroxy-1-(3,5-dihydroxyphenyl)-2-(3-hydroxyphenyl)ethanone and 2-Hydroxy-1-(3-hydroxyphenyl)-2-(3,5-dihydroxyphenyl)ethanone [6a+b]",DPPH radical scavenging capacity (SC50),[1],9.48 ± 0.3 mg/mL
same,MIC Sm,[2],12 µg/mL
same,MIC Ef,[3],24 µg/mL
same,MIC Sa,[4],12 µg/mL
same,Tyrosinase IC50,tyrosinase,25.45 µg/mL
same,BChE IC50,butyrylcholinesterase,592.92 µg/mL
same,"FRAP, the iron reducing antioxidant power",[5],2237 ± 58.3 μg/mL trolox/gram DW
same,"FRAP, the iron reducing antioxidant power",[5]; listed as 6,2237±58.3 μg/mL trolox/gram DW
same,MIC Ec,[6],103 µg/mL
same,MIC Yp,[7],103 µg/mL
same,"CUPRAC, copper reducing antioxidant power",[8],506.67 ± 17.3 μg/mL trolox/gram DW
same,MIC Bc,Bacillus cereus Roma709,24 µg/mL
same,MIC Ca,[9],103 µg/mL
same,MIC Pa,[10],52 µg/mL
same,AChE IC50,acetylcholinesterase,>1000 µg/mL
same,α-Amylase IC50,α-amylase,230.76 µg/mL
same,MIC Ms,[11],12 µg/mL
same,α-Glucosidase IC50,α-glucosidase,76.53 µg/mL
2-Hydroxy-1-(3-O- β -D-glucopyranosylphenyl)-2-(3-hydroxyphenyl)-ethanone; 2-Hydroxy-1-(3-hydroxyphenyl)-2-(3-O- β -D-glucopyranosylphenyl)ethanone [18a+b],GI50 RPE normal cell line,[12],1.90 µg/mL
same,IC50 RPE normal cell line,[12],83.81 µg/mL
same,DPPH radical scavenging capacity (SC50),[1],12.11 ± 0.43 mg/mL
same,Tyrosinase IC50,tyrosinase,>1000 µg/mL
same,"FRAP, the iron reducing antioxidant power",[5],2743.75 ± 25.20 μg/mL trolox/gram DW
same,GI50 HeLa cell line,[13],2.23 µg/mL
same,IC50 HeLa cell line,[13],104.49 µg/mL
same,"CUPRAC, copper reducing antioxidant power",[8],385.80 ± 37.12 μg/mL trolox/gram DW
same,α-Amylase IC50,α-amylase,>1000 µg/mL
same,α-Glucosidase IC50,α-glucosidase,>1000 µg/mL
